The values that follow are results of earlier work, collected in patent US4174406A, “Terpenylaminoalkanol fish toxicants” (priority 1977, dated 1979).

Like-named read-outs stand apart in the source and are kept apart here.

The subject of the data set is Carp. The settings on record: registered fish toxicants, cited from earlier work.

Consider antimycin, for which the “effect of water pH on activity” value was “adversely affected by pH” and the selectivity for carp entry is given as “non-selective for carp”. The “effect of water pH on activity” value (listed as antimyein) is listed as “adversely affected by waters of high pH”.

Consider `C=C(C)[C@H]1Cc2c(ccc3c2O[C@@H]2COc4cc(OC)c(OC)cc4[C@@H]2C3=O)O1` [Rotenone], for which the “effect of water pH on activity” value was “adversely affected by waters of high pH” and the selectivity for carp entry is “non-selective for carp”.
